Measurements published in US11713318B2, “Short conjugated oligoelectrolytes and uses thereof” (The Regents Of The University Of California, priority 2018, dated 2023).
Converted amounts (≈) assume the structure as drawn. Like-named read-outs stand apart in the source and are kept apart here.

Key:
[1] = test system: A. baumannii 1674627 (MDR); test: MIC against resistant strains, Tables 5a-5d; assay type: cell-based; details: Acinetobacter baumannii, n = 3
Protocol: (§1) Compounds described herein were evaluated for growth inhibition against a variety of bacterial species, including strains that have developed resistance to common antibacterial treatments, according to the procedure described herein, or by analogous procedures known to those skilled in the art. Resistant bacterial strains used for compound testing include methicillin-resistant S. aureus (MRSA), vancomycin resistant Enterococci (VRE) and various multi-drug resistant (MDR) strains commonly associated with hospital-acquired (nosocomial) infections, including, but not limited to A. baumannii, K. pnuemoniae, and E. cloacae.

[2] = test system: A. baumannii CDC0290 (MDR); test: MIC against resistant strains, Tables 5a-5d; assay type: cell-based; details: Acinetobacter baumannii, n = 3
Protocol: as §1

[3] = test system: E. cloacae 1744299 (ESBL); test: MIC against resistant strains, Tables 5a-5d; assay type: cell-based; details: Enterobacter cloacae, n = 3
Protocol: as §1

E. coli ATCC25922 (WT) = test: MIC against resistant strains, Tables 5a-5d; assay type: cell-based; details: Escherichia coli, n = 3
Protocol: as §1

E. faecium 1674620 (VRE) = test: MIC against resistant strains, Tables 5a-5d; assay type: cell-based; details: Enterococcus faecium, n = 3
Protocol: as §1

[4] = test system: K. pneumoniae ATCC BAA-2473 (MDR); test: MIC against resistant strains, Tables 5a-5d; assay type: cell-based; details: Klebsiella pneumoniae, ATCCBAA2473, n = 3
Protocol: as §1

[5] = test system: K. pneumoniae CDC0010 (MDR); test: MIC against resistant strains, Tables 5a-5d; assay type: cell-based; details: Klebsiella pneumoniae, n = 3
Protocol: as §1

[6] = test system: P. aeruginosa 1674623 (MDR); test: MIC against resistant strains, Tables 5a-5d; assay type: cell-based; details: Pseudomonas aeruginosa, n = 3
Protocol: as §1

[7] = test system: P. aeruginosa CDC0248 (MDR); test: MIC against resistant strains, Tables 5a-5d; assay type: cell-based; details: Pseudomonas aeruginosa, n = 3
Protocol: as §1

[8] = test system: S. aureus ATCC 33591 (MRSA); test: MIC against resistant strains, Tables 5a-5d; assay type: cell-based; details: Staphylococcus aureus, n = 3
Protocol: as §1

[9] = test system: S. aureus ATCC BAA-1717 (MRSA); test: MIC against resistant strains, Tables 5a-5d; assay type: cell-based; details: Staphylococcus aureus, n = 3
Protocol: as §1

E. coli K12 (ATCC 47076) = test: MIC broth microdilution method, Table 3; details: Escherichia coli, ATCC47076
[10] = test system: Hep G2 (ATCC HB-8065) cells; test: Cytotoxicity, MTT assay; assay type: cell-based; details: Hep G2, MTT, 24 hours incubation
Protocol: (§2) Before removing the frozen cell stocks from liquid nitrogen, culture medium was pre-warmed to 37° C. The frozen tube was then removed from liquid nitrogen and placed into a 37° C. water bath and shaken gently to thaw the cell stock as quickly as possible. A small portion of the pre-warmed culture medium was added to the cell solution. The cell suspension was then centrifuged at 1000 r/min for 3 minutes. The supernatant was discarded and the cells were resuspended in fresh culture medium.
(§3) NIH 3T3 (ATCC CRL-1658) and Hep G2 (ATCC HB-8065) cells were cultured with DMEM+10% FBS in 100 mm dishes. Cells were lifted for subculture or testing when confluence reached ˜60% by treating with 1× trypsin (incubated for 3 min at 37° C.). J774 (ATCC TIB-67) cells were cultured with DMEM+10% FBS in 100 mm dishes. Cells were lifted for subculture or testing when confluence reached ˜80% using a cell scraper. RAW264.7 (ATCC TIB-71) cells were cultured with DMEM+10% heat-inactivated FBS+1% pen/strep in T75 flasks. Cells were lifted for subculture or testing when confluence reached ˜80% using a cell scraper.
(§4) • 1. Cells were lifted and resuspended in culture medium. The number of cells in the cell suspension was determined using an auto-cell counter: 10 μL of the cell suspension was mixed with 10 μL 1× trypan blue (filtered with 0.2 μm PES filter) and the mixture was loaded onto a cell counting slide. Based on the concentration of viable cells, the cell suspension was further diluted to achieve the desired density. • 2. Cells were seeded in 96 well plates by adding 100 μL final cell suspension column-by-column using a multichannel pipette (5000 cells/well for NIH 3T3, 10000 cells/well for Hep G2, J774 and RAW264.7). The outer wells were block with PBS to reduce the effects of evaporation. One column was filled with only culture medium as a blank. Cells were incubated overnight before adding the test articles. • 3. Test articles were dissolved in 1×PBS (or DMSO) to obtain stocks solution. Stock solutions were pre-warmed before use. […] Serial dilutions (2-fold) of the 10× solutions were made in sterile culture tubes by diluting in 1×PBS (8 dilutions to yield 9 test concentrations). 900 μL of culture media was added to each tube to obtain final drug solution containing 10% PBS (or less than 1% DMSO) for each experimental group. • 4. The original culture medium was gently removed from the 96-well plates using a pipette. 100 μL of the test article solutions prepared in Step 3 were added to rows 2-7 of each column to obtain six replicates for each concentration. Plates were then incubated for 24 hours. • 5. MTT solutions were prepared by dissolving commercial MTT powder in 1×PBS to a concentration of 5 mg/mL. After passing through a 0.22 μm PES filter, the MTT solution was divided into 1 mL portions in sterile centrifuge tubes and stored at −20° C. • 6. MTT stock solutions were removed from the freezer to thaw at room temperature. Before adding MTT solutions, cell cultures were visually inspected and imaged using a microscope (to use as a comparison with MTT results). 10 μL of the 5 mg/mL MTT solution was added to each well and the plate was incubated for 4 hours. • 7. After 4 h incubation, the culture medium/MT solution was removed gently using a pipette. 100 μL of DMSO was added to each well using a multichannel pipette. The 96-well plates were analyzed in a plate reader using the following method: shake for 5 minutes, wait for 30 seconds, and measure absorbance at 570 nm. • 8. Data processing: The average of background Abg was calculated from the blank column. All other data was first treated by subtracting Abg. The average A. and standard deviation Se of each experimental group and the average Ac and standard deviation Sc for control group (with pure culture medium incubation) were then calculated. The cell viability was determined as Ae/Ac×100% and corresponding error as Se/Ae×100%. Significant outliers in any experimental or control group were removed. […]

J774 (ATCC TIB-67) cells = test: Cytotoxicity, MTT assay; assay type: cell-based; details: Mus musculus, MTT, 24 hours incubation, read-out: IC50
Protocol: as §2, §3, §4

[11] = test system: NIH 3T3 (ATCC CRL-1658) cells; test: Cytotoxicity, MTT assay; assay type: cell-based; details: Mus musculus
Protocol: as §2, §3, §4

Hep G2 cells = test: Cytotoxicity tested by Eurofins Pharma Discovery Services; assay type: cell-based; details: Homo sapiens, HepG2; Hep G2; data provided by Eurofins; read-out: IC50
[12] = test system: primary human hepatocytes; test: as above; assay type: cell-based; details: Hepatocyte, data provided by Eurofins, read-out: IC50
HRPTEpiC = test: as above; assay type: cell-based; details: data provided by Eurofins, read-out: IC50
[13] = test system: K. aerogenes (ATCC 13048); test: MIC broth microdilution method, Table 3; details: Klebsiella aerogenes, ATCC13048
[14] = test system: S. epidermidis (ATCC 14990); test: MIC broth microdilution method, Table 3; details: Staphylococcus epidermidis, ATCC14990
Cytotoxicity, MTT assay = assay type: cell-based
Protocol: as §2, §3, §4

[15] = Homo sapiens, HepG2, 24 h, read-out: IC50
[16] = NIH3T3, NIH 3T3, MTT, 24 hours incubation, read-out: IC50
[17] = human, Hep G2 (ATCC HB-8065) cells, Hep G2, at the concentration given as IC50 bound, read-out: cell viability at the highest or lowest test concentration

Compound	MIC [1]	MIC [2]	MIC [3]	MIC (E. coli ATCC25922 (WT))	MIC (E. faecium 1674620 (VRE))	MIC [4]	MIC [5]	MIC [6]	MIC [7]	MIC [8]	MIC [9]	MIC (E. coli K12 (ATCC 47076))	MIC [13]	MIC [14]	IC50 [10, 15]	IC50 (J774 (ATCC TIB-67) cells)	IC50 [11, 16]	viability at 24 h (Cytotoxicity, MTT assay; [17])	also measured
CCCCCC[N+](C)(C)CCCCOc1cc(/C=C/c2ccc(/C=C/c3cc(OCCCC[N+](C)(C)CCCCCC)cc(OCCCC[N+](C)(C)CCCCCC)c3)cc2)cc(OCCCC[N+](C)(C)CCCCCC)c1.[I-].[I-].[I-].[I-] [Formula T]	2 µg/mL	4 µg/mL	2 µg/mL	2 µg/mL	0.25 µg/mL	4 µg/mL	4 µg/mL	16 µg/mL	32 µg/mL	0.5 µg/mL	1 µg/mL	4 µg/mL	8 µg/mL	1 µg/mL	15.3 µg/mL	4.6 µg/mL	12.4 µg/mL		IC50 (Hep G2 cells): 11.6 µg/mL; IC50 [12]: 31.8 µg/mL; IC50 (HRPTEpiC): 2.8 µg/mL
C[N+](C)(C)CCCCCCOc1cc(/C=C/c2ccc(/C=C/c3ccccc3)cc2)cc(OCCCCCC[N+](C)(C)C)c1OCCCCCC[N+](C)(C)C [Formula WW]												16 µg/mL		2 µg/mL	45.4 µg/mL		30.9 µg/mL		
CO/N=C(\C(=O)N[C@@H]1C(=O)N2C(C(=O)[O-])=C(C[n+]3cccc4c3CCC4)CS[C@H]12)c1csc(N)n1 [Cefpirome, reference compound]												0.0625 µg/mL (≈ 0.121 µM)	0.25 µg/mL (≈ 0.486 µM)	1 µg/mL (≈ 1.94 µM)	> 128 µg/mL	> 128 µg/mL	> 128 µg/mL	101%	viability at 24 h (Cytotoxicity, MTT assay; mouse, J774 (ATCC TIB-67) cells, at the concentration given as IC50 bound, read-out: cell viability at the highest or lowest test concentration): 107%; viability at 24 h (Cytotoxicity, MTT assay; mouse, NIH 3T3 (ATCC CRL-1658) cells, NIH 3T3, at the concentration given as IC50 bound, read-out: cell viability at the highest or lowest test concentration): 81%
CCCCCC[N+](C)(C)CCCOc1cc(/C=C/c2ccc(/C=C/c3cc(OCCC[N+](C)(C)CCCCCC)cc(OCCC[N+](C)(C)CCCCCC)c3)cc2)cc(OCCC[N+](C)(C)CCCCCC)c1 [Formula BB]	2 µg/mL	2 µg/mL	2 µg/mL	2 µg/mL	0.25 µg/mL	2 µg/mL	2 µg/mL	16 µg/mL	32 µg/mL	2 µg/mL	1 µg/mL	8 µg/mL			15 µg/mL				viability at 24 h (Cytotoxicity, MTT assay; human, Hep G2 (ATCC HB-8065) cells, Hep G2, at concentrations efficacious against bacterial species (0.25-4 μg/mL), read-out: cell viability): ~90%; IC50 [10]: 15.1 µg/mL
C[N+]1(CCCCCCOc2cc(/C=C/c3cc(OCCCCCC[N+]4(C)CCCCC4)cc(OCCCCCC[N+]4(C)CCCCC4)c3)cc(OCCCCCC[N+]3(C)CCCCC3)c2)CCCCC1.[I-].[I-].[I-].[I-] [Formula N]												128 µg/mL		2 µg/mL					IC50 ([11]; NIH3T3, 24 h): 124 µg/mL
C[N+](C)(C)CCCCCCOc1cc(/C=C/c2ccc(/C=C/c3ccc(/C=C/c4cc(OCCCCCC[N+](C)(C)C)cc(OCCCCCC[N+](C)(C)C)c4)cc3)cc2)cc(OCCCCCC[N+](C)(C)C)c1 [Formula TT]												> 256 µg/mL	> 128 µg/mL	4 µg/mL	> 128 µg/mL		69.3 µg/mL	70%	IC50 (Hep G2 cells): 94.6 µg/mL; IC50 [12]: 102 µg/mL; IC50 (HRPTEpiC): 6.3 µg/mL

Second part, led by results:

MIC [1]	MIC [2]	MIC [3]	MIC (E. coli ATCC25922 (WT))	MIC (E. faecium 1674620 (VRE))	MIC [4]	MIC [5]	MIC [6]	MIC [7]	MIC [8]	MIC [9]	MIC (E. coli K12 (ATCC 47076))	MIC [13]	MIC [14]	Compound	IC50 [10, 15]	IC50 (J774 (ATCC TIB-67) cells)	IC50 [11, 16]	viability at 24 h (Cytotoxicity, MTT assay; [17])	also measured
64 µg/mL	64 µg/mL	8 µg/mL	8 µg/mL	4 µg/mL	16 µg/mL	32 µg/mL	> 64 µg/mL	> 64 µg/mL	1 µg/mL	2 µg/mL	16 µg/mL			CC[N+](C)(C)CCCCOc1cc(/C=C/c2ccc(/C=C/c3cc(OCCCC[N+](C)(C)CC)cc(OCCCC[N+](C)(C)CC)c3)cc2)cc(OCCCC[N+](C)(C)CC)c1.[I-].[I-].[I-].[I-] [Formula P]					
64 µg/mL	64 µg/mL	4 µg/mL	4 µg/mL	1 µg/mL	8 µg/mL	32 µg/mL	> 64 µg/mL	> 64 µg/mL	1 µg/mL	1 µg/mL	8 µg/mL			CCC[N+](C)(C)CCCCOc1cc(/C=C/c2ccc(/C=C/c3cc(OCCCC[N+](C)(C)CCC)cc(OCCCC[N+](C)(C)CCC)c3)cc2)cc(OCCCC[N+](C)(C)CCC)c1 [Formula Q]	> 128 µg/mL			91%	
											4 µg/mL	8 µg/mL	2 µg/mL	CCCCC[N+](C)(C)CCCCOc1cc(/C=C/c2ccc(/C=C/c3cc(OCCCC[N+](C)(C)CCCCC)cc(OCCCC[N+](C)(C)CCCCC)c3)cc2)cc(OCCCC[N+](C)(C)CCCCC)c1 [Formula S]	> 128 µg/mL	22.6 µg/mL	42.3 µg/mL	52%	
32 µg/mL	32 µg/mL	4 µg/mL	1 µg/mL	1 µg/mL	4 µg/mL	16 µg/mL	64 µg/mL	64 µg/mL	1 µg/mL	2 µg/mL	4 µg/mL			CCCC[N+](C)(C)CCOc1cc(/C=C/c2ccc(/C=C/c3cc(OCC[N+](C)(C)CCCC)cc(OCC[N+](C)(C)CCCC)c3)cc2)cc(OCC[N+](C)(C)CCCC)c1.[I-].[I-].[I-].[I-] [Formula G]	889 µg/mL				
